# Assay results reported in US10065971B2 (priority 2014, dated 2018).
# Structures can show the parent of a compound that is named as a salt.
# Target: human σ1 receptor (Homo sapiens, UniProt Q99720)
# Test: biochemical
# Parameters: μ and σ1 dual binding: scale not given here
# Conditions: combined class from Ki at human σ1 receptor (A1) and Ki at human μ-opioid receptor (A2); radioligand binding
# Description: Biological Activity Pharmacological Study Human σ1 Receptor Radioligand Assay
# The assay was carried out with 7 μg of membrane suspension, 5 nM of [^3H](+)-pentazocine in either absence or presence of either buffer or 10 μM Haloperidol for total and non-specific binding, respectively. Binding buffer contained Tris-HCl 50 mM at pH 8. Plates were incubated at 37° C. for 120 minutes. After the incubation period, the reaction mix was then transferred to MultiScreen HTS, FC plates (Millipore), filtered and plates were washed 3 times with ice-cold 10 mM Tris-HCL (pH7.4). Filters were dried and counted at approximately 40% efficiency in a MicroBeta scintillation counter (Perkin-Elmer) using EcoScint liquid scintillation cocktail
# Sequence of human σ1 receptor (Q99720 whole entry): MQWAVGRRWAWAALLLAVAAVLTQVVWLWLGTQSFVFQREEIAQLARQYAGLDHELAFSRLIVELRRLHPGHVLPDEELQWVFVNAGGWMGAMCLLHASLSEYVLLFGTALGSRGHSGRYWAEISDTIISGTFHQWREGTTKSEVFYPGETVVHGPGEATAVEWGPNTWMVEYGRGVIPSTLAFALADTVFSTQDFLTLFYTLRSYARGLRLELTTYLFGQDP
row,SMILES,μ and σ1 dual binding
1,"Cl.O=C(Cc1ccccc1)N1CCOC2(CCN(CCc3ccccc3)CC2)C1 [Example 4, 1-(9-phenethyl-1-oxa-4,9-diazaspiro[5.5]undecan-4-yl)-2-phenylethanone hydrochloride]",++
2,"Cl.O=C(c1cccnc1)N1CCOC2(CCN(CCc3ccccc3)CC2)C1 [Example 5, (9-phenethyl-1-oxa-4,9-diazaspiro[5.5]undecan-4-yl)(pyridin-3-yl)methanone hydrochloride]",++
3,"O=C(c1cscn1)N1CCOC2(CCN(CCc3ccccc3)CC2)C1 [Example 12, (9-phenethyl-1-oxa-4,9-diazaspiro[5.5]undecan-4-yl)(thiazol-4-yl)methanone]",++
4,"Cl.O=C(c1nccs1)N1CCOC2(CCN(CCc3ccccc3)CC2)C1 [Example 13, (9-phenethyl-1-oxa-4,9-diazaspiro[5.5]undecan-4-yl)(thiazol-2-yl)methanone hydrochloride]",++
5,"Cl.O=C(c1cncs1)N1CCOC2(CCN(CCc3ccccc3)CC2)C1 [Example 14, (9-phenethyl-1-oxa-4,9-diazaspiro[5.5]undecan-4-yl)(thiazol-5-yl)methanone hydrochloride]",++
6,"Cl.O=C(Cc1cccnc1)N1CCOC2(CCN(CCc3ccccc3)CC2)C1 [Example 15, 1-(9-phenethyl-1-oxa-4,9-diazaspiro[5.5]undecan-4-yl)-2-(pyridin-3-yl)ethanone hydrochloride]",++
7,"Cl.O=C(CC1CCOCC1)N1CCOC2(CCN(CCc3ccccc3)CC2)C1 [Example 16, 1-(9-phenethyl-1-oxa-4,9-diazaspiro[5.5]undecan-4-yl)-2-(tetrahydro-2H-pyran-4-yl)ethanone hydrochloride]",++
8,"Cl.O=C(Cc1ccccn1)N1CCOC2(CCN(CCc3ccccc3)CC2)C1 [Example 19, 1-(9-phenethyl-1-oxa-4,9-diazaspiro[5.5]undecan-4-yl)-2-(pyridin-2-yl)ethanone hydrochloride]",++
9,"Cl.O=C(CC1CC1)N1CCOC2(CCN(CCc3ccccc3)CC2)C1 [Example 20, 2-cyclopropyl-1-(9-phenethyl-1-oxa-4,9-diazaspiro[5.5]undecan-4-yl)ethanone hydrochloride]",++
10,"Cl.O=C(c1ncccc1F)N1CCOC2(CCN(CCc3ccccc3)CC2)C1 [Example 25, (3-fluoropyridin-2-yl)(9-phenethyl-1-oxa-4,9-diazaspiro[5.5]undecan-4-yl)methanone hydrochloride]",++
11,"Cl.O=C(c1cncc(F)c1)N1CCOC2(CCN(CCc3ccccc3)CC2)C1 [Example 26, (5-fluoropyridin-3-yl)(9-phenethyl-1-oxa-4,9-diazaspiro[5.5]undecan-4-yl)methanone hydrochloride]",++
12,"CC1CN(C(=O)c2ncccc2F)CC2(CCN(CCc3ccccc3)CC2)O1.Cl (stereo not shown) [Example 32, (3-fluoropyridin-2-yl)(2-methyl-9-phenethyl-1-oxa-4,9-diazaspiro[5.5]undecan-4-yl)methanone hydrochloride]",++
13,"CC1CN(C(=O)c2cncc(C(F)(F)F)c2)CC2(CCN(CCc3ccccc3)CC2)O1.Cl (stereo not shown) [Example 36, (2-methyl-9-phenethyl-1-oxa-4,9-diazaspiro[5.5]undecan-4-yl)(5-(trifluoromethyl)pyridin-3-yl)methanone hydrochloride]",++
14,"CC1CN(C(=O)c2ccccc2)CC2(CCN(CCc3cccc(C(F)(F)F)n3)CC2)O1 (stereo not shown) [Example 38, (2-methyl-9-(2-(6-(trifluoromethyl)pyridin-2-yl)ethyl)-1-oxa-4,9-diazaspiro[5.5]undecan-4-yl)(phenyl)methanone dihydrochloride]",++
15,"CC1CN(C(=O)c2ccccc2)CC2(CCN(CCc3ncccc3C(F)(F)F)CC2)O1.Cl (stereo not shown) [Example 41, (2-methyl-9-(2-(3-(trifluoromethyl)pyridin-2-yl)ethyl)-1-oxa-4,9-diazaspiro[5.5]undecan-4-yl)(phenyl)methanone hydrochloride]",++
16,"CC1CN(C(=O)c2ccccc2)CC2(CCN(CCc3ccc(C(F)(F)F)cn3)CC2)O1.Cl (stereo not shown) [Example 42, (2-methyl-9-(2-(5-(trifluoromethyl)pyridin-2-yl)ethyl)-1-oxa-4,9-diazaspiro[5.5]undecan-4-yl)(phenyl)methanone hydrochloride]",++
17,"CC1CN(C(=O)c2ccccn2)CC2(CCN(CCc3ncccc3Cl)CC2)O1.Cl (stereo not shown) [Example 48, (9-(2-(3-chloropyridin-2-yl)ethyl)-2-methyl-1-oxa-4,9-diazaspiro[5.5]undecan-4-yl)(pyridin-2-yl)methanone hydrochloride]",++
18,"Cl.O=C(c1ccccc1)N1CCOC2(CCN(CCc3ccccn3)CC2)C1 [Example 63, phenyl(9-(2-(pyridin-2-yl)ethyl)-1-oxa-4,9-diazaspiro[5.5]undecan-4-yl)methanone hydrochloride]",++
19,"Cl.O=C(c1ccccc1)N1CCOC2(CCN(CCc3ccc(C(F)(F)F)nc3)CC2)C1 [Example 70, phenyl(9-(2-(6-(trifluoromethyl)pyridin-3-yl)ethyl)-1-oxa-4,9-diazaspiro[5.5]undecan-4-yl)methanone hydrochloride]",++
20,"CC1CN(C(=O)c2ccccn2)CC2(CCN(CCc3cccc(OC(F)(F)F)c3)CC2)O1 (stereo not shown) [Example 80, (2-methyl-9-(3-(trifluoromethoxy)phenethyl)-1-oxa-4,9-diazaspiro[5.5]undecan-4-yl)(pyridin-2-yl)methanone dihydrochloride]",++
21,"Cl.O=S(=O)(c1ccccc1)N1CCOC2(CCN(CCc3ccccc3)CC2)C1 [Example 83, 9-phenethyl-4-(phenylsulfonyl)-1-oxa-4,9-diazaspiro[5.5]undecane hydrochloride]",++
22,"CC1CN(C(=O)c2ccccc2)CC2(CCN(CCc3ccccn3)CC2)O1.Cl (stereo not shown) [Example 87, (2-methyl-9-(2-(pyridin-2-yl)ethyl)-1-oxa-4,9-diazaspiro[5.5]undecan-4-yl)(phenyl)methanone hydrochloride]",++
23,"CCC(=O)N1CC(C)OC2(CCN(CCc3ccccc3F)CC2)C1.Cl (stereo not shown) [Example 91, 1-(9-(2-fluorophenethyl)-2-methyl-1-oxa-4,9-diazaspiro[5.5]undecan-4-yl)propan-1-one hydrochloride]",++

# Same assay, conditions: combined class from Ki at human σ1 receptor (A1) and Ki at human μ-opioid receptor (A2); radioligand binding; read-out: μ and σ1 dual binding
row,SMILES,Ki
1,"O=C(C1CCOCC1)N1CCOC2(CCN(CCc3ccccc3)CC2)C1 [Example 18, (9-phenethyl-1-oxa-4,9-diazaspiro[5.5]undecan-4-yl)(tetrahydro-2H-pyran-4-yl)methanone]",> 500 nM
2,"CC1CN(C(=O)c2ccccc2F)CC2(CCN(CCc3ncccc3F)CC2)O1 (stereo not shown) [Example 59, (2-fluorophenyl)(9-(2-(3-fluoropyridin-2-yl)ethyl)-2-methyl-1-oxa-4,9-diazaspiro[5.5]undecan-4-yl)methanone dihydrochloride]",> 500 nM
3,"O=C(c1ccccc1)N1CCOC2(CCN(CCc3cccnc3)CC2)C1 [Example 71, phenyl(9-(2-(pyridin-3-yl)ethyl)-1-oxa-4,9-diazaspiro[5.5]undecan-4-yl)methanone dihydrochloride]",> 500 nM
4,"CC1CN(C(=O)c2ccccc2)CC2(CCN(CCc3ccc(S(N)(=O)=O)cc3)CC2)O1 (stereo not shown) [Example 75, 4-(2-(4-benzoyl-2-methyl-1-oxa-4,9-diazaspiro[5.5]undecan-9-yl)ethyl)benzene-sulfonamide]",> 500 nM
5,"CC1CN(C(=O)c2ccc(Cl)cn2)CC2(CCN(CCc3csc(NC(=O)OC(C)(C)C)n3)CC2)O1 (stereo not shown) [Example 78, tert-butyl (4-(2-(4-(5-chloropicolinoyl)-2-methyl-1-oxa-4,9-diazaspiro[5.5]undecan-9-yl)ethyl)thiazol-2-yl)carbamate]",> 500 nM
6,"CC1CN(C(=O)c2ccccc2)CC2(CCN(CCc3csc(NC(=O)OC(C)(C)C)n3)CC2)O1 (stereo not shown) [Example 79, tert-butyl (4-(2-(4-benzoyl-2-methyl-1-oxa-4,9-diazaspiro[5.5]undecan-9-yl)ethyl)thiazol-2-yl)carbamate]",> 500 nM
7,"CC(C)CCN1CCC2(CC1)CN(C(=O)c1ccccc1)CC(C)O2 (stereo not shown) [Example 86, (9-isopentyl-2-methyl-1-oxa-4,9-diazaspiro[5.5]undecan-4-yl)(phenyl)methanone hydrochloride]",> 500 nM
8,"CC(C)OCCN1CCC2(CC1)CN(C(=O)c1ccccc1)CC(C)O2 (stereo not shown) [Example 88, (9-(2-isopropoxyethyl)-2-methyl-1-oxa-4,9-diazaspiro[5.5]undecan-4-yl)(phenyl)methanone hydrochloride]",> 500 nM
9,"CC1CN(C(=O)c2ccccc2)CC2(CCN(CC(=O)N3CCOCC3)CC2)O1 (stereo not shown) [Example 89, 2-(4-benzoyl-2-methyl-1-oxa-4,9-diazaspiro[5.5]undecan-9-yl)-1-morpholinoethanone hydrochloride]",> 500 nM
10,"CC1CN(C(=O)c2ccccc2)CC2(CCN(CC(=O)N3CCCCC3)CC2)O1 (stereo not shown) [Example 90, 2-(4-benzoyl-2-methyl-1-oxa-4,9-diazaspiro[5.5]undecan-9-yl)-1-(piperidin-1-yl)ethanone hydrochloride]",> 500 nM
11,"O=C(c1ccccc1)N1CCOC2(CCN(CCc3cccc([N+](=O)[O-])c3)CC2)C1 [Example 97, (9-(3-nitrophenethyl)-1-oxa-4,9-diazaspiro[5.5]undecan-4-yl)(phenyl)methanone]",> 500 nM
